From patent US8748624B2, “Picolinamido-propanoic acid derivatives useful as glucagon receptor antagonists” (Janssen Pharmaceutica NV, priority 2011, dated 2014)

Legend:
[1] = target: human glucagon receptor (GCGR) (Homo sapiens (Human), UniProt P47871); experiment: Inhibition of 125I-glucagon binding to membranes from HEK293 cells expressing the human glucagon receptor; conditions: membranes of hGluc-1 HEK cells, 125I-glucagon 0.3 nM
Outline: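 Filtration binding assay on membranes from HEK293 cells stably expressing full-length human GCGR, 6 μg protein/well, with 0.3 nM ¹²⁵I-glucagon plus compound, 2 h at room temperature. Buffer: 50 mM HEPES pH 7.4, 5 mM MgCl2, 1 mM CaCl2, 0.2% BSA. IC50 by non-linear regression, converted to Ki.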

human GCGR = human GCGR (Homo sapiens (Human), UniProt P47871); experiment: Cellular functional assay, cAMP readout (glucagon-stimulated cAMP in HEK293 cells expressing human GCGR); type: cell-based; conditions: hGluc-1 HEK cells
Sequence of human GCGR (P47871 26-477): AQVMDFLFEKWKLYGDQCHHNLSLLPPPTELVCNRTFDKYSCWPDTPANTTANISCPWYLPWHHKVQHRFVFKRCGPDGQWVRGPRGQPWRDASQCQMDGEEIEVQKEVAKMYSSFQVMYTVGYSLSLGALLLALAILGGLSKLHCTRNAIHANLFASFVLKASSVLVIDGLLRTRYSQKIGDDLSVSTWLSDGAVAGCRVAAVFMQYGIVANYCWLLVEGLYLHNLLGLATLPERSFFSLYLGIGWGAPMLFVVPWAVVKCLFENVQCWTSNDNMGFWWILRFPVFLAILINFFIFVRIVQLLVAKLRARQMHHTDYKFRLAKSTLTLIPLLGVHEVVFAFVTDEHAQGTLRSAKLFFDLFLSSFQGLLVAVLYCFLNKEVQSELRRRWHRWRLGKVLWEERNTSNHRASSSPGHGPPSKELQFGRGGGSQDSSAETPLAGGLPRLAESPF
Outline: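 HEK293 cells stably transfected with full-length human GCGR were exposed to compound for 30 min before a 5-min challenge with […] (final) glucagon. Readout was TR-FRET (LANCE) cAMP versus standard curve; IC50s fitted by non-linear regression and converted to Ki values.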

[2] = 2 hours room temperature, IC50 converted to Ki, average if tested more than once
[3] = LANCE TR-FRET, IC50 converted to Ki, average if tested more than once
[4] = meta-substituted comparative compounds (Table 3)

Sequence of human glucagon receptor (GCGR) (P47871 26-477): as above

Ki [1, 2] [nM] | Ki (human GCGR; [3]) [nM] | Ki [1, 4] [nM] | Ki (human GCGR; [4]) [nM] | Compound
25.1 | 72.5 | – | – | O=C(O)CCNC(=O)c1ccc(-c2cc(C(F)(F)F)ccc2CNc2ccc(-c3ccc(Cl)c(C(F)(F)F)c3)c(Cl)c2)cn1 [Compound 32, 3-(5-(2-(((2,4′-dichloro-3′-(trifluoromethyl)-[1,1′-biphenyl]-4-yl)amino)methyl)-5-(trifluoromethyl)phenyl)picolinamido)propanoic acid]
33.8 | 34.6 | – | – | O=C(O)CCNC(=O)c1ccc(-c2cc(C(F)(F)F)c(Cl)cc2CNc2ccc(-c3ccc(Cl)cc3Cl)cc2)cn1 [Compound 82, 3-(5-(4-chloro-2-(((2′,4′-dichloro-[1,1′-biphenyl]-4-yl)amino)methyl)-5-(trifluoromethyl)phenyl)picolinamido)propanoic acid]
27 | 67.5 | – | – | O=C(O)CCNC(=O)c1ccc(-c2cc(-c3ccccc3)ccc2CNc2ccc(-c3ccc(Cl)cc3Cl)cc2)cn1 [Compound 173, 3-(5-(4-(((2′,4′-dichloro-[1,1′-biphenyl]-4-yl)amino)methyl)-[1,1′-biphenyl]-3-yl)picolinamido)propanoic acid]
27.7 | 73.3 | – | – | O=C(O)CCNC(=O)c1ccc(-c2cc(Cl)ccc2CNc2ccc(-c3ccc(F)c(Cl)c3)cc2)cn1 [Compound 150, 3-(5-(5-chloro-2-(((3′-chloro-4′-fluoro-[1,1′-biphenyl]-4-yl)amino)methyl)phenyl)picolinamido)propanoic acid]
39.6 | 45.8 | – | – | O=C(O)CCNC(=O)c1ccc(-c2cc(Cl)ccc2C(=O)Nc2ccc(-c3ccc(Cl)cc3Cl)cc2)cn1 [Compound 19, 3-(5-(5-chloro-2-((2′,4′-dichloro-[1,1′-biphenyl]-4-yl)carbamoyl)phenyl)picolinamido)propanoic acid]
– | – | > 1350 | > 10400 | O=C(O)CCNC(=O)c1ccc(-c2cc(Cl)cc(CNc3ccc(-c4ccc(Cl)cc4Cl)cc3)c2)cn1 [Compound M4, 3-(5-(3-chloro-5-(((2′,4′-dichloro-[1,1′-biphenyl]-4-yl)amino)methyl)phenyl)picolinamido)propanoic acid, reference compound]
28.3 | 32.4 | – | – | O=C(O)CCNC(=O)c1ccc(-c2cc(C(F)(F)F)ccc2CNc2ccc(-c3ccc(C(F)(F)F)cc3Cl)cc2)cn1 [Compound 24, 3-(5-(2-(((2′-chloro-4′-(trifluoromethyl)-[1,1′-biphenyl]-4-yl)amino)methyl)-5-(trifluoromethyl)phenyl)picolinamido)propanoic acid]
23.8 | 17.1 | – | – | Cc1cc(Cl)ccc1-c1ccc(NCc2ccc(C(F)(F)F)cc2-c2ccc(C(=O)NCCC(=O)O)nc2)cc1Cl [Compound 34, 3-(5-(2-(((2,4′-dichloro-2′-methyl-[1,1′-biphenyl]-4-yl)amino)methyl)-5-(trifluoromethyl)phenyl)picolinamido)propanoic acid]
57.4 | 225 | – | – | O=C(O)CCNC(=O)c1ccc(-c2cc(F)c(F)cc2C(=O)Nc2ccc(-c3ccc(Cl)cc3)cc2)cn1 [Compound 97, 3-(5-(2-((4′-chloro-[1,1′-biphenyl]-4-yl)carbamoyl)-4,5-difluorophenyl)picolinamido)propanoic acid]
18.3 | 110 | – | – | O=C(O)CCNC(=O)c1ccc(-c2cc(C3=CCCCC3)ccc2CNc2ccc(-c3ccc(F)cc3)cc2)cn1 [Compound 174, 3-(5-(4-(((4′-fluoro-[1,1′-biphenyl]-4-yl)amino)methyl)-2′,3′,4′,5′-tetrahydro-[1,1′-biphenyl]-3-yl)picolinamido)propanoic acid]
43.5 | 170 | – | – | N#Cc1cc(NCc2cc(F)c(F)cc2-c2ccc(C(=O)NCCC(=O)O)nc2)ccc1-c1ccc(Cl)cc1 [Compound 110, 3-(5-(2-(((4′-chloro-2-cyano-[1,1′-biphenyl]-4-yl)amino)methyl)-4,5-difluorophenyl)picolinamido)propanoic acid]
69.6 | 180 | – | – | N#Cc1cc(NCc2cc(F)c(F)cc2-c2ccc(C(=O)NCCC(=O)O)nc2)ccc1-c1ccc(Cl)cc1F [Compound 111, 3-(5-(2-(((4′-chloro-2-cyano-2′-fluoro-[1,1′-biphenyl]-4-yl)amino)methyl)-4,5-difluorophenyl)picolinamido)propanoic acid]
31.6 | 140 | – | – | O=C(O)CCNC(=O)c1ccc(-c2cc(Cl)ccc2CNc2ccc(-c3ccc(F)cc3Cl)cc2)cn1 [Compound 152, 3-(5-(5-chloro-2-(((2′-chloro-4′-fluoro-[1,1′-biphenyl]-4-yl)amino)methyl)phenyl)picolinamido)propanoic acid]
33 | 255 | – | – | Cc1ccc(-c2ccc(NCc3cc(F)c(F)cc3-c3ccc(C(=O)NCCC(=O)O)nc3)cc2Cl)c(F)c1 [Compound 105, 3-(5-(2-(((2-chloro-2′-fluoro-4′-methyl-[1,1′-biphenyl]-4-yl)amino)methyl)-4,5-difluorophenyl)picolinamido)propanoic acid]
60.6 | 550 | – | – | O=C(O)CCNC(=O)c1ccc(-c2cc(Cl)ccc2CNc2ccc(-c3ccc(F)cc3F)c(F)c2)cn1 [Compound 89, 3-(5-(5-chloro-2-(((2,2′,4′-trifluoro-[1,1′-biphenyl]-4-yl)amino)methyl)phenyl)picolinamido)propanoic acid]
38.3 | 600 | – | – | O=C(O)CCNC(=O)c1ccc(-c2cc(Cl)ccc2CNc2ccc(-c3cccc(F)c3)cc2)cn1 [Compound 134, 3-(5-(5-chloro-2-(((3′-fluoro-[1,1′-biphenyl]-4-yl)amino)methyl)phenyl)picolinamido)propanoic acid]
187 | 510 | – | – | O=C(O)CCNC(=O)c1ccc(-c2ccccc2CNc2ccc(-c3ccc(Cl)cc3)cc2)cn1 [Compound 2, 3-(5-(2-(((4′-chloro-[1,1′-biphenyl]-4-yl)amino)methyl)phenyl)picolinamido)propanoic acid]
